Source: patent publication US8686044B2, “Amide derivative, pest control agent containing the amide derivative, and use of the amide derivative” (Mitsui Chemicals Agro, Inc., priority 2008, dated 2014)
Read-outs that look alike come from different tables or passages of the source.

How the values were obtained:
Format in all cases: in vivo
Plutella xylostella = test: Pesticidal test against Plutella xylostella (cabbage leaf dip); settings: foliar, 144 h, concentration 1 ppm, 2-stage larvae, examined after 6 days, 25° C., read-out: pesticidal rate
Summary of the method: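 Cabbage leaf pieces dipped 30 s in test solution at a predetermined concentration, air-dried, then offered to 2nd-instar larvae, five per group in duplicate. Held at 25° C; living and dead larvae counted after 6 days.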

Spodoptera litura = test: Pesticidal test against Spodoptera litura (cabbage leaf dip); settings: foliar, 144 h, concentration 1 ppm, 2-stage larvae, examined after 6 days, 25° C., read-out: pesticidal rate
Summary of the method: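 Cabbage leaf pieces dipped 30 seconds in compound solution at a predetermined concentration and air-dried, then offered to second-stage larvae, five per group in two replicates. Held at 25° C. Living and dead larvae counted after 6 days.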

Adoxophyes honmai = test: Pesticidal test against Adoxophyes honmai (artificial feed dip); settings: 144 h, concentration 1 ppm, 2-stage larvae, examined after 6 days, 25° C., read-out: pesticidal rate
Description: (§1) Pesticidal Test against Adoxophyes honmai A thinly sliced artificial feed was immersed for 30 seconds in a chemical solution in which a test compound had been prepared at a predetermined concentration, and air-dried, and then put into a 7 cm polyethylene cup having a filter paper laid on the bottom thereof, and 2-stage larvae of Adoxophyes honmai were released. They were left to stand in a thermostatic chamber at 25° C., and the numbers of the living pests and the dead pests were examined after 6 days. The test was carried out with five larvae per group in two replicates. Further, the above compound (A) was used as a comparative compound.

Helicoverpa armigera = test: Pesticidal test against Helicoverpa armigera (cabbage leaf disk dip); settings: foliar, 72 h, concentration 1 ppm, 2-stage larvae, examined after 3 days, 25° C., read-out: pesticidal rate
Description: as §1, with “Helicoverpa armigera” for “Adoxophyes honmai”, “cabbage leaf disk” for “thinly sliced artificial feed”, “air-dried. The leaf disk was” for “air-dried, and then”, “6-hole plastic” for “7 cm polyethylene”, “released with one insect being released per hole.” for “released.”, “3” for “6”

Laodelphax striatellus = test: Pesticidal test against Laodelphax striatellus (rice seedling spray); settings: 144 h, read-out: pesticidal rate
Summary of the method: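 Rice seedlings sprayed with 2.5 ml acetone solution of compound at a predetermined concentration, air-dried, then infested with third-stage Laodelphax striatellus larvae in capped water-containing tubes at 25 °C. Living and dead insects counted after 6 days; ten larvae per group, two replicates.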

Musca domestica = test: Pesticidal test against Musca domestica (petri dish dry film); settings: 24 h, concentration 100 ppm, female adults, examined after 1 day, 25° C., read-out: pesticidal rate
Description: Pesticidal Test against Musca domestica
1 ml of an acetone solution in which a test compound had been prepared at a predetermined concentration was added dropwise to a petri dish having a diameter of 9 cm, and air-dried, and then the female adults of Musca domestica were released and the petri dish was capped. They were left to stand in a thermostatic chamber at 25° C., and the numbers of the living pests and the dead pests were examined after 1 day. The test was carried out with five larvae per group in two replicates.

[1] = concentration 100 ppm, 3-stage larvae, examined after 6 days, 25° C.

O=C(Nc1c(I)cc(C(F)(C(F)(F)F)C(F)(F)F)cc1C(F)(F)F)c1cccc(NC(=O)c2ccc(F)cc2Cl)c1 [6-449]
≥ 70%: pest or weed control at 1 ppm (Plutella xylostella) | pest or weed control at 1 ppm (Spodoptera litura) | pest or weed control at 1 ppm (Adoxophyes honmai) | pest or weed control at 1 ppm (Helicoverpa armigera)

N#Cc1cccc(C(=O)Nc2cccc(C(=O)Nc3c(Br)cc(C(F)(C(F)(F)F)C(F)(F)C(F)(F)F)cc3Br)c2F)c1 (centres unmarked) [6-1202]
≥ 70%: pest or weed control at 1 ppm (Plutella xylostella) | pest or weed control at 1 ppm (Spodoptera litura) | pest or weed control at 1 ppm (Adoxophyes honmai) | pest or weed control at 100 ppm (Laodelphax striatellus; [1])

O=C(Nc1cccc(C(=O)Nc2c(I)cc(C(F)(C(F)(F)F)C(F)(F)F)cc2I)c1F)c1cccc(F)c1 [6-1262]
≥ 70%: pest or weed control at 1 ppm (Plutella xylostella) | pest or weed control at 1 ppm (Spodoptera litura) | pest or weed control at 1 ppm (Adoxophyes honmai) | pest or weed control at 1 ppm (Helicoverpa armigera) | pest or weed control at 100 ppm (Laodelphax striatellus; [1])

N#Cc1ccc(C(=O)Nc2cccc(C(=O)Nc3c(I)cc(C(F)(C(F)(F)F)C(F)(F)F)cc3I)c2F)cc1 [6-1281]
≥ 70%: pest or weed control at 1 ppm (Plutella xylostella) | pest or weed control at 1 ppm (Spodoptera litura) | pest or weed control at 1 ppm (Helicoverpa armigera) | pest or weed control at 100 ppm (Musca domestica) | pest or weed control at 100 ppm (Laodelphax striatellus; [1])

O=C(Nc1cccc(C(=O)Nc2c(Br)cc(C(F)(C(F)(F)F)C(F)(F)C(F)(F)F)cc2C(F)(F)F)c1F)c1cccnc1Cl (centres unmarked) [6-1688]
≥ 70%: pest or weed control at 1 ppm (Plutella xylostella) | pest or weed control at 1 ppm (Spodoptera litura) | pest or weed control at 1 ppm (Adoxophyes honmai) | pest or weed control at 100 ppm (Laodelphax striatellus; [1])

O=C(Nc1cccc(C(=O)Nc2c(I)cc(C(F)(C(F)(F)F)C(F)(F)C(F)(F)F)cc2C(F)(F)F)c1F)c1ccccc1 (centres unmarked) [6-1808]
≥ 70%: pest or weed control at 1 ppm (Plutella xylostella) | pest or weed control at 1 ppm (Spodoptera litura) | pest or weed control at 1 ppm (Helicoverpa armigera) | pest or weed control at 100 ppm (Musca domestica) | pest or weed control at 100 ppm (Laodelphax striatellus; [1])

CN(C(=O)c1cccc(C#N)c1)c1cccc(C(=O)Nc2c(Br)cc(C(F)(C(F)(F)F)C(F)(F)C(F)(F)F)cc2Br)c1F (centres unmarked) [7-1202]
≥ 70%: pest or weed control at 1 ppm (Plutella xylostella) | pest or weed control at 1 ppm (Spodoptera litura) | pest or weed control at 1 ppm (Adoxophyes honmai) | pest or weed control at 100 ppm (Laodelphax striatellus; [1])

CN(C(=O)c1ccc(C#N)cc1)c1cccc(C(=O)Nc2c(I)cc(C(F)(C(F)(F)F)C(F)(F)F)cc2C(F)(F)F)c1F [7-1751]
≥ 70%: pest or weed control at 1 ppm (Plutella xylostella) | pest or weed control at 1 ppm (Spodoptera litura) | pest or weed control at 1 ppm (Helicoverpa armigera) | pest or weed control at 100 ppm (Laodelphax striatellus; [1])

CN(C(=O)c1cccc(F)c1)c1cccc(C(=O)N(C)c2c(I)cc(C(F)(C(F)(F)F)C(F)(F)F)cc2C(F)(F)F)c1F [9-2322]
≥ 70%: pest or weed control at 1 ppm (Plutella xylostella) | pest or weed control at 1 ppm (Spodoptera litura) | pest or weed control at 100 ppm (Musca domestica) | pest or weed control at 100 ppm (Laodelphax striatellus; [1])

CN(C(=O)OCC(Cl)(Cl)Cl)c1cccc(C(=O)Nc2c(I)cc(C(F)(C(F)(F)F)C(F)(F)F)cc2C(F)(F)F)c1F [12-835]
≥ 70%: pest or weed control at 1 ppm (Plutella xylostella) | pest or weed control at 1 ppm (Spodoptera litura) | pest or weed control at 100 ppm (Musca domestica) | pest or weed control at 100 ppm (Laodelphax striatellus)

CN(C(=O)OCC(Cl)(Cl)Cl)c1cccc(C(=O)Nc2c(I)cc(C(F)(C(F)(F)F)C(F)(F)C(F)(F)F)cc2C(F)(F)F)c1F (centres unmarked) [12-864, 2,2,2-trichloroethyl 2-fluoro-3-(2-iodo-4-(perfluorobutan-2-yl)-6-(trifluoromethyl)phenylcarbamoyl)phenyl(methyl)carbamate]
≥ 70%: pest or weed control at 1 ppm (Plutella xylostella) | pest or weed control at 1 ppm (Spodoptera litura) | pest or weed control at 100 ppm (Musca domestica) | pest or weed control at 100 ppm (Laodelphax striatellus)
